Data: ChEMBL document CHEMBL4418910, “Methods for categorising cancer such as breast cancer” (2018)

Tests used:
[1] = target: T1, Serine/threonine-protein kinase LMTK3 (Homo sapiens, UniProt Q96Q04); assay: Inhibition of N-terminal GST tag LMTK3 kinase domain (133 to 415 amino acids) (unknown origin) expressed in insect cells incubated for 120 mins by […] fluorescent detection based CisBio KinEASE STK-S1 kit based assay
T1 sequence (Q96Q04 whole entry): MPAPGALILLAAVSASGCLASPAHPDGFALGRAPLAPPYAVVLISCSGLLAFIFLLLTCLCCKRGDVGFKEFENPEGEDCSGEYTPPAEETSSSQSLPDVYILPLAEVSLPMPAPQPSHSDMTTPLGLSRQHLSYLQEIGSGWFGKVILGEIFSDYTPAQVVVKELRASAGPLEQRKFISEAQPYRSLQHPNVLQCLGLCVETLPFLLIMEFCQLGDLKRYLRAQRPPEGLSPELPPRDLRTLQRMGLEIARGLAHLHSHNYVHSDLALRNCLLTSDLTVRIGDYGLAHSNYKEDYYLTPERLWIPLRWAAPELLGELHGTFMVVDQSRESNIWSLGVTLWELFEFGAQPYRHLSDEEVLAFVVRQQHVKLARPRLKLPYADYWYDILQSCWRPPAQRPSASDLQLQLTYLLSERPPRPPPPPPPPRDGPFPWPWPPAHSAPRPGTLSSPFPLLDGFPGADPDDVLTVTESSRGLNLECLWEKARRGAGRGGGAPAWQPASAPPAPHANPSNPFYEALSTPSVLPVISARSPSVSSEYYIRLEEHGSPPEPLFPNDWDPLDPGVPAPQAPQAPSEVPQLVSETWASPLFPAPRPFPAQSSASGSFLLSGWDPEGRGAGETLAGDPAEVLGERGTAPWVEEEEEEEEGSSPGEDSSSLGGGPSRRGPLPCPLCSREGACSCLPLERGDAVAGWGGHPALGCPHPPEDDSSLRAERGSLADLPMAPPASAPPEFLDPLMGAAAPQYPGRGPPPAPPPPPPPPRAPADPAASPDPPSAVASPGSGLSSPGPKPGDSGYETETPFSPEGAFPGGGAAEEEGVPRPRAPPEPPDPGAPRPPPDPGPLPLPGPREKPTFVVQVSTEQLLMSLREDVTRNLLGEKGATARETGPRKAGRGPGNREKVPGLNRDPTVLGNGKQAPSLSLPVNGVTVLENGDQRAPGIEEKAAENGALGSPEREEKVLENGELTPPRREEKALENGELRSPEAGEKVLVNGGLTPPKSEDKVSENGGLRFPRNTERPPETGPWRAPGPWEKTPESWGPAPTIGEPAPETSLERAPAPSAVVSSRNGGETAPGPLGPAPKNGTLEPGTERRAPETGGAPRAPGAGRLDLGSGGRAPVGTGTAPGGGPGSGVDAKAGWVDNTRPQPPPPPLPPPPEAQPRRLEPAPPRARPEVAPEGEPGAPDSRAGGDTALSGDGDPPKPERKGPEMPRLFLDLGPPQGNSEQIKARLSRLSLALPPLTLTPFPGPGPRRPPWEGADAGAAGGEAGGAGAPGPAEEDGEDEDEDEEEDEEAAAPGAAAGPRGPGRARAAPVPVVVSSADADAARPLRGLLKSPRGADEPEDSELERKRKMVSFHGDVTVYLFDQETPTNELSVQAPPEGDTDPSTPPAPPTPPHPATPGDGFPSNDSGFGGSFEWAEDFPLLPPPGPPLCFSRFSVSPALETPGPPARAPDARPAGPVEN

[2] = target: T2, Serine/threonine-protein kinase LMTK3 (Homo sapiens) (UniProt Q96Q04); assay: Inhibition of N-terminal GST tag LMTK3 kinase domain (133 to 415 amino acids) (unknown origin) expressed in insect cells incubated for 120 mins by […] fluorescent detection based CisBio KinEASE STK-S1 kit based assay relative to untreated control
T2 sequence (whole entry): T1 sequence (Q96Q04 whole entry)

IC50 [1]	SMILES	inhibition [2]
132 pM	CN(C)CCCn1cc(C2=C(c3c[nH]c4ccccc34)C(=O)NC2=O)c2ccccc21 [GF-109203]	108%
117 pM	CCCCCCOC(=O)[C@]1(O)C[C@H]2O[C@]1(C)n1c3ccccc3c3c4c(c5c6ccccc6n2c5c31)C(=O)NC4	98.7%
–	CN[C@@H]1C[C@H]2O[C@@](C)([C@@H]1OC)n1c3ccccc3c3c4c(c5c6ccccc6n2c5c31)C(=O)NC4	109%
–	COC(=O)[C@@]1(O)C[C@H]2O[C@]1(C)n1c3ccccc3c3c4c(c5c6ccccc6n2c5c31)C(=O)NC4	98.9%
